Some targets named below: Histone deacetylase 2 (Homo sapiens, UniProt Q92769); Histone deacetylase 5 (Homo sapiens, UniProt Q9UQL6); Histone deacetylase 1 (Homo sapiens, UniProt Q13547); Histone deacetylase 3 (Homo sapiens, UniProt O15379); Histone deacetylase 4 (Homo sapiens, UniProt P56524).
Test [1] concerns the target T1, Histone deacetylase 7 (Homo sapiens, UniProt Q8WUI4).
T1 sequence (Q8WUI4 whole entry): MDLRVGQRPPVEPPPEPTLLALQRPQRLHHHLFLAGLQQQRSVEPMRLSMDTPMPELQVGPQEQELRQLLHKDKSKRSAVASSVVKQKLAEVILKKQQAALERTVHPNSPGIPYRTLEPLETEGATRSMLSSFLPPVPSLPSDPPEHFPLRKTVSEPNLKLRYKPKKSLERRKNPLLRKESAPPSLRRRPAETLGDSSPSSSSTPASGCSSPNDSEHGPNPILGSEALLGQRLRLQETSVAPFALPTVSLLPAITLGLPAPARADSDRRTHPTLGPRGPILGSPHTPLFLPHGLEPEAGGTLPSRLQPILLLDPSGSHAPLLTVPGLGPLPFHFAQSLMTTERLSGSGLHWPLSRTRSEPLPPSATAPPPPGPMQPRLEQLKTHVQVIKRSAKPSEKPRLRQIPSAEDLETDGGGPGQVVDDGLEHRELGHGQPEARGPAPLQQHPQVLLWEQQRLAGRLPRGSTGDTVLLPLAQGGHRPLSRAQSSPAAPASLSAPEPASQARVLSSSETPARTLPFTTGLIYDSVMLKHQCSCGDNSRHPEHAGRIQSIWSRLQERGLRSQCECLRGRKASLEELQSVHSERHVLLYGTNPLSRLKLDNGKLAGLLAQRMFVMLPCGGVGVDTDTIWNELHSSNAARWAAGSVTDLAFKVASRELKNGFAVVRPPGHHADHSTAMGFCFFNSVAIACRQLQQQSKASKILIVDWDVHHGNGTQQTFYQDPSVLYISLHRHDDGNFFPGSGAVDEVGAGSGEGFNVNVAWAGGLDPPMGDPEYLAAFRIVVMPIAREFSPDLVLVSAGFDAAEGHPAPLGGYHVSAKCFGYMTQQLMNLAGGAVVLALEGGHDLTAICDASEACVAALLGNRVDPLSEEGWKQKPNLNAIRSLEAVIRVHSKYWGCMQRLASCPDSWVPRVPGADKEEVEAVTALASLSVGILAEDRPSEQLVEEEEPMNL

Test [2] deals with U-937. Put plainly: Induction of cell cycle arrest in human U-937 cells assessed as accumulation of cells in pre-G1 phase at 5 uM for 24 hrs by PI staining based flow cytometric analysis. The test is classed as functional. Background: In flow cytometry, cells or beads pass a laser one at a time.
For a further test, the system named is HCT-116. The test is described as follows: cells. Conditions: Homo sapiens, HCT-116, 72 h; call rule not given here. In kind it is functional, cell-based.
In test [3] the target is T2, Histone deacetylase 8 (Homo sapiens, UniProt Q9BY41).
T2 sequence (Q9BY41 whole entry): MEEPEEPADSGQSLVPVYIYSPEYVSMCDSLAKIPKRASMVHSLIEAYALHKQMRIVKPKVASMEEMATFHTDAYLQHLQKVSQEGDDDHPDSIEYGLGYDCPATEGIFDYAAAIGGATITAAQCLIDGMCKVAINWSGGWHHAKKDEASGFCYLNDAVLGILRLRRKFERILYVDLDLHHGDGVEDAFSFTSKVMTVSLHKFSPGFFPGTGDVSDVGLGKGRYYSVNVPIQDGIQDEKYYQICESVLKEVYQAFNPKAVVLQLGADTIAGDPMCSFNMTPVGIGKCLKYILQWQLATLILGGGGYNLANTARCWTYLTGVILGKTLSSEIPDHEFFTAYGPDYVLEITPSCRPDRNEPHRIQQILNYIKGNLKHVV

In another test the test system is A549. Put plainly: cells. In kind it is functional, cell-based. To be noted: Homo sapiens, A549, 72 h.
Test [4] addresses T3, Histone deacetylase 11 (Homo sapiens, UniProt Q96DB2).
T3 sequence (Q96DB2 whole entry): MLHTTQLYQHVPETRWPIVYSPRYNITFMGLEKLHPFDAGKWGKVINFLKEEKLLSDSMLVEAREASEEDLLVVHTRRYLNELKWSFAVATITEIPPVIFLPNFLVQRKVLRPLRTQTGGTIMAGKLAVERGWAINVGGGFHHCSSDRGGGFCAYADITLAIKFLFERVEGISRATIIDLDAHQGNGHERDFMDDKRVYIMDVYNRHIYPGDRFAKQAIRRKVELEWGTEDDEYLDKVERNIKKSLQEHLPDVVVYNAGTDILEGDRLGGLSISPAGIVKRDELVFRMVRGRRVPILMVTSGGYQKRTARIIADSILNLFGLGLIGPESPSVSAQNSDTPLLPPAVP

In test [5] the test system is U-937. The test is described as follows: Induction of cell cycle arrest in human U-937 cells assessed as accumulation of cells in G1 phase at 1 to 5 uM for 48 hrs by PI staining based flow cytometric analysis. The test is classed as functional. Conditions: dose 1-5 µM.
For test [6], the system named is K562. Put plainly: cells. In kind it is functional, cell-based. To be noted: Homo sapiens, K562, 72 h.
Test [7] deals with T4, Histone deacetylase 9 (Homo sapiens, UniProt Q9UKV0).
T4 sequence (Q9UKV0 whole entry): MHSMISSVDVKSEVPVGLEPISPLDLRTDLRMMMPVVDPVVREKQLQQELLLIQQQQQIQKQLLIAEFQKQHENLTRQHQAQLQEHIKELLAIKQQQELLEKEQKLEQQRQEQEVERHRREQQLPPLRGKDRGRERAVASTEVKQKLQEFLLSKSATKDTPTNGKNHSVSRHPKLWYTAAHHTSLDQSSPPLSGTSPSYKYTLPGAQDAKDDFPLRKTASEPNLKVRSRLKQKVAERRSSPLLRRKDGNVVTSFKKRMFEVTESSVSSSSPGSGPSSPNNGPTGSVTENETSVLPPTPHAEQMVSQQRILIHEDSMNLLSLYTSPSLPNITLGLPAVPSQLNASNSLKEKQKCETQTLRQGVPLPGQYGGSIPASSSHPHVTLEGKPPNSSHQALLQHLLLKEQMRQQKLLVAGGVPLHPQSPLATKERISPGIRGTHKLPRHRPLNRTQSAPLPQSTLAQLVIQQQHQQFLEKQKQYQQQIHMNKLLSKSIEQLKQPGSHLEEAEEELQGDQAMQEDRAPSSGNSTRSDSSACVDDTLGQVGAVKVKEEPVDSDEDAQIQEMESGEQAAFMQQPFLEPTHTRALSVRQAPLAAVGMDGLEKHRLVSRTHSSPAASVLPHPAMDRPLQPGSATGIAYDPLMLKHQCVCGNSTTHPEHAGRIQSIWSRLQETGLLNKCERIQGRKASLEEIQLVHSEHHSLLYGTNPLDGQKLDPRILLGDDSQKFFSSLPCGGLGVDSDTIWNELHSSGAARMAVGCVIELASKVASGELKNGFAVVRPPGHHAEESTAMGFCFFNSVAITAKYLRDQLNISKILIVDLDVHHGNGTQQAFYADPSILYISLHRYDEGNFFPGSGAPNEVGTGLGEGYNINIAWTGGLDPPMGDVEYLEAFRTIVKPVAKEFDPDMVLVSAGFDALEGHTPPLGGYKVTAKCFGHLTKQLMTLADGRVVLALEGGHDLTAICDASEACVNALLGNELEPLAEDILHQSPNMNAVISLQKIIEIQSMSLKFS
Test [8] deals with T5, Polyamine deacetylase HDAC10 (Homo sapiens, UniProt Q969S8).
T5 sequence (Q969S8 whole entry): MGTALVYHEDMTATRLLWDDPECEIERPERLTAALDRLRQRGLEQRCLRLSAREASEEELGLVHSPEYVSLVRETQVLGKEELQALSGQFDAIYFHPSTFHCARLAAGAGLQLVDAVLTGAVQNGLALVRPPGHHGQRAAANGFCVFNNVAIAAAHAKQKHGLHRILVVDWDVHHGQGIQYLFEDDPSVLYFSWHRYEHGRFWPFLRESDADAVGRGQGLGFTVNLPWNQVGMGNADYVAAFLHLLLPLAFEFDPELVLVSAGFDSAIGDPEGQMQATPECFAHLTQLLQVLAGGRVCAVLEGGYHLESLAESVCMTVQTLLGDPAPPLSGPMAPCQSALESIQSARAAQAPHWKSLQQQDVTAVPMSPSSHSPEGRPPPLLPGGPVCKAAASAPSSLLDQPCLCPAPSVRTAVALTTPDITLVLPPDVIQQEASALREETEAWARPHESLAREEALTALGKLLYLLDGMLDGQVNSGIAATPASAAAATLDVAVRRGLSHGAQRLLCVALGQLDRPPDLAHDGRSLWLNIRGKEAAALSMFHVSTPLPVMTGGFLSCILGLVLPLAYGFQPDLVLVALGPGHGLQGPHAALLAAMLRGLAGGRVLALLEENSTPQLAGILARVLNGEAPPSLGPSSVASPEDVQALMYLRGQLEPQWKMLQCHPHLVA

Test [9] deals with U-937. Put plainly: Induction of cell cycle arrest in human U-937 cells assessed as accumulation of cells in pre-G1 phase at 5 uM for 48 hrs by PI staining based flow cytometric analysis. The test is classed as functional. To be noted: 48 h, 5 µM.
The subject of a further test is MV4-11. Put plainly: Antiproliferative activity against human MV4-11 cells incubated for 48 hrs. In kind it is functional, cell-based. Conditions: MV4-11, 48 h.
For a further test, the system named is NB-4. The test is described as follows: Antiproliferative activity against human NB4 cells incubated for 48 hrs. To be noted: NB-4, 48 h. The test is classed as functional, cell-based.
A further test concerns HL-60. Put plainly: Antiproliferative activity against human HL-60 cells incubated for 48 hrs. In kind it is functional, cell-based. To be noted: HL-60, 48 h.
A further test concerns OCI-AML2. Put plainly: Antiproliferative activity against human OCI-AML2 cells incubated for 48 hrs. In kind it is functional, cell-based. To be noted: OCI-AML2, 48 h.
The next test has as its system Kasumi 1. Put plainly: Antiproliferative activity against human Kasumi 1 cells incubated for 48 hrs. In kind it is functional, cell-based. To be noted: Kasumi 1, 48 h.
Another test concerns OCI-AML-3. Put plainly: Antiproliferative activity against human OCI-AML-3 cells incubated for 48 hrs. In kind it is functional, cell-based. To be noted: OCI-AML-3, 48 h.
The test system of another test is KARPAS-299. Put plainly: Antiproliferative activity against human KARPAS-299 cells incubated for 48 hrs. In kind it is functional, cell-based. To be noted: KARPAS-299, 48 h.
Test [10] deals with U-937. Put plainly: Antiproliferative activity against human U-937 cells incubated for 48 hrs. To be noted: U-937, 48 h. The test is classed as functional, cell-based.
For test [11], the target named is T3, Histone deacetylase 11. This is another data set of the same source.
Test [12] in a line: Antiproliferative activity against human IMS-M2 cells incubated for 48 hrs. In kind it is functional, cell-based. To be noted: IMS-M2, 48 h.
Test [13] has as its system U-937. Put plainly: Induction of cell cycle arrest in human U-937 cells assessed as cell death at 5 uM for 48 hrs by PI staining based flow cytometric analysis. The test is classed as functional.
The test system of test [14] is U-937. The test is described as follows: Induction of cell cycle arrest in human U-937 cells assessed as accumulation of cells in pre-G1 phase at 1 uM for 48 hrs by PI staining based flow cytometric analysis. In kind it is functional.
Test [15] concerns K562. The test is described as follows: Potency index, ratio of SAHA IC50 to test compound IC50 for antiproliferative activity against human K562 cell. The test is classed as functional.
Test [16] addresses T1, Histone deacetylase 7. This is another data set of the same source.
In test [17] the target is T4, Histone deacetylase 9. The source holds these as a separate data set.
Test [18] has as its target T2, Histone deacetylase 8. The source holds these as a separate data set.

Values joined by “and” are separate entries in the source; they are usually repeats but may differ in a detail not shown here. Identical values can stand only once.

Histone deacetylase 1, sequence (Q13547 whole entry): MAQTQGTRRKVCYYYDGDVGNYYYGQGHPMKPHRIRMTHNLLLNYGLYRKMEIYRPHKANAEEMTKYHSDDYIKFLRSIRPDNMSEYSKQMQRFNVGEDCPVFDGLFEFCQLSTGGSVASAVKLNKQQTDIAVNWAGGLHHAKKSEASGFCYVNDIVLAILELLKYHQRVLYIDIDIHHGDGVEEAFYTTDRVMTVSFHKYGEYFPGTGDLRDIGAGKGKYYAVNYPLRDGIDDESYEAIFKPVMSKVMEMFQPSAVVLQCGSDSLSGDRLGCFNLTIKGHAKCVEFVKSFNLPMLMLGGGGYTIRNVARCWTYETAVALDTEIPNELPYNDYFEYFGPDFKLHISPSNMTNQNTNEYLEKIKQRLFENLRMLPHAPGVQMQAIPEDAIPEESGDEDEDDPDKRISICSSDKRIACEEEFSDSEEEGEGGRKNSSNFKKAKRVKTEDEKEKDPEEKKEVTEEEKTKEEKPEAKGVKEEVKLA
Histone deacetylase 3, sequence (O15379 whole entry): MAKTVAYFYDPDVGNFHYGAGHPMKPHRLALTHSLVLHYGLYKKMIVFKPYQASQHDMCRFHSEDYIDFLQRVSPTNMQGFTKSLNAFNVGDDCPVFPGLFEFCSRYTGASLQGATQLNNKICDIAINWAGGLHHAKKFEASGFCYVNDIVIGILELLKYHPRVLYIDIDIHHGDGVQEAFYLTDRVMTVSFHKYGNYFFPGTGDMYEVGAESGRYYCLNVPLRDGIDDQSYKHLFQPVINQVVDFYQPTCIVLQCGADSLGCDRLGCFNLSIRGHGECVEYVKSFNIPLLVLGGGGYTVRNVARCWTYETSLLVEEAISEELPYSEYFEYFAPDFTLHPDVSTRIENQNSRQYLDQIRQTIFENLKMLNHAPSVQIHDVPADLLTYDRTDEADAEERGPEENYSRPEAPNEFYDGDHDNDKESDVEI
Histone deacetylase 5, sequence (Q9UQL6 whole entry): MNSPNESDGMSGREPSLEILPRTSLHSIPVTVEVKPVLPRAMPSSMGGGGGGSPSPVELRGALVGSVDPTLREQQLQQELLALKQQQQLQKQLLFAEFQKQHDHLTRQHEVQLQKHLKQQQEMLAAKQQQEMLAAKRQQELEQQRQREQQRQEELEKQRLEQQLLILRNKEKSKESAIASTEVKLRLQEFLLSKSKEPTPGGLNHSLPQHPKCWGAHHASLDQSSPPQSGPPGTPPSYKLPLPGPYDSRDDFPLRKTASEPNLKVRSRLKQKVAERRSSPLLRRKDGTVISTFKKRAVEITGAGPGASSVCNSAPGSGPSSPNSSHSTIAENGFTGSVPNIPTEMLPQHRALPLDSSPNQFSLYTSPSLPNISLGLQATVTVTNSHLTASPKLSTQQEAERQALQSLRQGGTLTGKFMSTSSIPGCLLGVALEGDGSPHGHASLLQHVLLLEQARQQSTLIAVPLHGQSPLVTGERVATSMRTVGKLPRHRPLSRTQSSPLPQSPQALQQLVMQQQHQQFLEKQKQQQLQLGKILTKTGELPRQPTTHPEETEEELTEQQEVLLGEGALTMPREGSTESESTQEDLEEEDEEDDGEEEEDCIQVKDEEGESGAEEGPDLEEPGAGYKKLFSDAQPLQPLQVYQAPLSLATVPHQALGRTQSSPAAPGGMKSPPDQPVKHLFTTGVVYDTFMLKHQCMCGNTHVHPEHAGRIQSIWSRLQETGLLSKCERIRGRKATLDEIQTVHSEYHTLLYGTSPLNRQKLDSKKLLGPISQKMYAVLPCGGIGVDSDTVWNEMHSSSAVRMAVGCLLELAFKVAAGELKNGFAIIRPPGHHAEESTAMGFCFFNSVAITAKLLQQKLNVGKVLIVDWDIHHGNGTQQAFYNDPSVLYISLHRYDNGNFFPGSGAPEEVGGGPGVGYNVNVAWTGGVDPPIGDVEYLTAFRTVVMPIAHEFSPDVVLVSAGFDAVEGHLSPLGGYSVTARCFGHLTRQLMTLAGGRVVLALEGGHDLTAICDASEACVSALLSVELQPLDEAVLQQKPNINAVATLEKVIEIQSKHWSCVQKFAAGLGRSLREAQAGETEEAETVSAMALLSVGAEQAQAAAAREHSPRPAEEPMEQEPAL
Histone deacetylase 2, sequence (Q92769 whole entry): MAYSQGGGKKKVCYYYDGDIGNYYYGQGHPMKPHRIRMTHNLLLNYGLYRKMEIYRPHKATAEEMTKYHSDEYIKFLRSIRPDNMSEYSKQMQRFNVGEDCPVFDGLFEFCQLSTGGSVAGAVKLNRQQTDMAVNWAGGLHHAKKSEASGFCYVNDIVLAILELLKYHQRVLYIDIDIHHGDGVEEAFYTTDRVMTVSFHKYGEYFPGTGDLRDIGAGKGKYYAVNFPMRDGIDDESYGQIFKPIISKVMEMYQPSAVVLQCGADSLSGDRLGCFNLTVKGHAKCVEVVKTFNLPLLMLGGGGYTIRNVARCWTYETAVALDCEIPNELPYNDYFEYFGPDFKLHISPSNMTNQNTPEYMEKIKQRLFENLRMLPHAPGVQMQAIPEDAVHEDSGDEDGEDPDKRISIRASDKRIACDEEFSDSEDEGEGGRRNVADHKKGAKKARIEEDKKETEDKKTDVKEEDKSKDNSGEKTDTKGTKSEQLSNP
Histone deacetylase 4, sequence (P56524 whole entry): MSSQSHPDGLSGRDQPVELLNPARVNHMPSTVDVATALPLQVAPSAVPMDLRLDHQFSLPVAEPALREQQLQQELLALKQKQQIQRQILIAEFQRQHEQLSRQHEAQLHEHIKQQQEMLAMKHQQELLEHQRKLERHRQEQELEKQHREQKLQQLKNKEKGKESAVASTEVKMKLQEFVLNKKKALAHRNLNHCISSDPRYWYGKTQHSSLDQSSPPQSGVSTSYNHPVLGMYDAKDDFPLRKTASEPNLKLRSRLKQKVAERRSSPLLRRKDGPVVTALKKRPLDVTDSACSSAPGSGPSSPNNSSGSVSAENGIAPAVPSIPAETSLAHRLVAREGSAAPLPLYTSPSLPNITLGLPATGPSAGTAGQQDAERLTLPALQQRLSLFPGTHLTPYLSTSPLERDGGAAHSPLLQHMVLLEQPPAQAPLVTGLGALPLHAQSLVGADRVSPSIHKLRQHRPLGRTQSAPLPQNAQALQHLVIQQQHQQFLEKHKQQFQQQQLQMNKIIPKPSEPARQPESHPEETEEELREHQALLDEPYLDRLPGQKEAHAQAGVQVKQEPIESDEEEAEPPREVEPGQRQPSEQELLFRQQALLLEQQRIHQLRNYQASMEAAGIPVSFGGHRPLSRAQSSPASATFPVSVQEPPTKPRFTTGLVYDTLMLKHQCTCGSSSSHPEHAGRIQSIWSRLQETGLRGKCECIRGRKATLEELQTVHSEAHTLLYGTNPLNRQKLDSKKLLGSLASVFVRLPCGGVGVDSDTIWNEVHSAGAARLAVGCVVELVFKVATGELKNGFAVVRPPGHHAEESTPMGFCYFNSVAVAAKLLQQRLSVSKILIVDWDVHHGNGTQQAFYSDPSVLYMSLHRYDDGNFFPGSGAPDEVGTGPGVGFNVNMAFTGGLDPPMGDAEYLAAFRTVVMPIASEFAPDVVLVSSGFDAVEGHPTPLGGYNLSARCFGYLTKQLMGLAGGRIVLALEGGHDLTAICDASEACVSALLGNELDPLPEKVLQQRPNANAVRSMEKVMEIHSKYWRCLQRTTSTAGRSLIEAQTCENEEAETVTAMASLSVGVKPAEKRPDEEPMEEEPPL

In general, IC50 refers to the concentration that gives 50% inhibition. Take `Nc1ccccc1NC(=O)c1ccc(NC(=O)C(Cc2ccccc2)c2ccccc2)cn1` (stereo not given): the IC50 result is “Not Active” against Histone deacetylase 7 [1]; 320 nM with HCT-116; “Not Active” on Histone deacetylase 8 [3]; 1510 nM in the test with A549; 85400 nM at Histone deacetylase 11 [4]; 431 nM on Histone deacetylase 2. The half-maximal inhibitory concentration (IC50) result was “Not Active” on Histone deacetylase 5; 320 nM in the test on K562 [6]; 353 nM at Histone deacetylase 1; 515 nM against Histone deacetylase 3; “Not Active” against Histone deacetylase 9 [7]; “Not Active” against Histone deacetylase 4. 320 nM corresponded to half-maximal inhibition in [8] (IC50). Also, the Activity in the test on U-937 [2] is given as 10%; in the test on U-937 [5], 70%.
As for `Nc1ccccc1NC(=O)c1ccc(NC(=O)Cc2ccc3ccccc3c2)cn1`, the Activity in the test on U-937 [9] was 50% and 30%; with U-937 [2], 10%; with U-937 [5] it was 70%; in the test on U-937 [13] it was 100%. Also, the half-inhibitory concentration (IC50) result against Histone deacetylase 7 [1] was “Not Active”; with HCT-116, 430 nM; with MV4-11, 170 nM; in the test with NB-4, 210 nM; against Histone deacetylase 8 [3], “Not Active”; with A549 it was 1280 nM. Besides, the IC50 was 218 nM with HL-60; 227 nM against Histone deacetylase 2; 1500 nM with OCI-AML2; 257 nM in the test with Kasumi 1; “Not Active” at Histone deacetylase 5; 4140 nM with OCI-AML-3. Also, the concentration for half-maximal inhibition (IC50) with K562 [6] was 370 nM; against Histone deacetylase 1, 189 nM; with KARPAS-299 it was 9270 nM; with U-937 [10] it was 822 nM; against Histone deacetylase 3 it was 440 nM; at Histone deacetylase 9 [7] it was “Not Active”. Besides, the IC50 result is “Not Active” at Histone deacetylase 4, “Not Active” against Histone deacetylase 11 [11], 446 nM in [8] and 155 nM in test [12].
Turning to `Nc1ccccc1NC(=O)c1ccc(CNc2nccc(-c3cccnc3)n2)cc1` [MOCETINOSTAT], the concentration for half-maximal inhibition (IC50) stood at 190 nM in the test on MV4-11; 406 nM in the test with NB-4; 418 nM with HL-60; 1560 nM in the test on OCI-AML2; 151 nM in the test on Kasumi 1; 1790 nM in the test on OCI-AML-3. For the same molecule, the IC50 with KARPAS-299 was 4150 nM; in the test on U-937 [10] it was 1370 nM; in test [12], 657 nM.
As to `O=C(/C=C/c1ccc(NC(=O)Cc2cccc3ccccc23)cn1)NO`, the Activity is reported as 10% with U-937 [2], 40% in the test with U-937 [14] and 70% in the test on U-937 [5]. Further, the half-maximal inhibitory concentration (IC50) came out at 70 nM in the test on HCT-116; 59 nM with MV4-11; 84 nM in the test with NB-4; 320 nM with A549; 3980 nM against Histone deacetylase 11 [4]; 276 nM in the test on HL-60. The IC50 was 156 nM against Histone deacetylase 2; 379 nM in the test on OCI-AML2; 66 nM in the test on Kasumi 1; 1350 nM at Histone deacetylase 5 (read-out: IC50); 2060 nM at Histone deacetylase 7 [16]; 529 nM in the test on OCI-AML-3. Moreover, the IC50 in the test with K562 [6] was determined as 50 nM; at Histone deacetylase 9 [17], 2790 nM; at Histone deacetylase 1, 98 nM; with KARPAS-299 it was 400 nM; with U-937 [10], 258 nM; at Histone deacetylase 3, 39 nM. The IC50 amounted to 71 nM in test [8], 47 nM against Histone deacetylase 8 [18] and 198 nM in test [12]. The “Ratio IC50” value in the test on K562 [15] came to 10.

The values are drawn from ChEMBL document CHEMBL5352478, “Novel pyridine-containing histone deacetylase inhibitors strongly arrest proliferation, induce apoptosis and modulate miRNAs in cancer cells” (Eur J Med Chem, 2023).
